In assay [1] the target is T1, Gamma-aminobutyric acid receptor subunit alpha-5 (Homo sapiens, UniProt P31644).
T1 sequence (P31644 whole entry): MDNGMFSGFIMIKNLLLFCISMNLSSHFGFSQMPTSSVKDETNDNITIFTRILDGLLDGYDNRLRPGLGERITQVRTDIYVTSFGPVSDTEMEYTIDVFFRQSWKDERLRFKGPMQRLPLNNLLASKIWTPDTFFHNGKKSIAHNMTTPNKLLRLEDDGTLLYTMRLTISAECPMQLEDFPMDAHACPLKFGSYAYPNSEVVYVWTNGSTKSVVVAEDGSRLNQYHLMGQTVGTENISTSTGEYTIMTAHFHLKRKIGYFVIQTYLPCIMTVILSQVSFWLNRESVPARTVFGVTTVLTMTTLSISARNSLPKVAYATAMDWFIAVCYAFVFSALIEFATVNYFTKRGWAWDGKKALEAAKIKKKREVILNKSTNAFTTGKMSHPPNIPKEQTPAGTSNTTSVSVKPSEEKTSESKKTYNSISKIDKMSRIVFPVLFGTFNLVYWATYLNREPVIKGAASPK
In words: Inhibition of [3H]flumazenil binding to recombinant GABA-A receptor alpha-5 subunit in spinal cord. Type of assay: tissue-based.

Assay [2] deals with T1, Gamma-aminobutyric acid receptor subunit alpha-5. In words: Inhibition of [3H]flumazenil binding to recombinant GABA-A receptor alpha-5 subunit in cerebellum. The format is tissue-based.

This passage reports IC50 results from ChEMBL document CHEMBL1130521, “A conformational study of ligands for omega modulatory sites of GABAa receptors by NOESY NMR spectroscopy and distance geometry” (Bioorg Med Chem Lett, 1997).

As a reminder, the IC50 is the concentration that inhibits the measured activity by half.

As for `CCCC(=O)N(C)Cc1c(-c2ccc(Cl)cc2)nc2ccccn12`, the IC50 turned out to be 4.6 nM in assay [1] and 2.7 nM in assay [2].
